According to patent US20220193076A1, “METHODS OF TREATING BREAST CANCER WITH TUCATINIB” (Seagen Inc., priority 2019, published 2022):
Like-named read-outs stand apart in the source and are kept apart here.

What was measured:
CYP2C8 = target: T1, CYP2C8 (Homo sapiens, UniProt P10632); test: Ki determination in pooled human liver microsomes, amodiaquine N-deethylase (Example 5); format: in vitro ADME
T1 sequence (P10632 1-490): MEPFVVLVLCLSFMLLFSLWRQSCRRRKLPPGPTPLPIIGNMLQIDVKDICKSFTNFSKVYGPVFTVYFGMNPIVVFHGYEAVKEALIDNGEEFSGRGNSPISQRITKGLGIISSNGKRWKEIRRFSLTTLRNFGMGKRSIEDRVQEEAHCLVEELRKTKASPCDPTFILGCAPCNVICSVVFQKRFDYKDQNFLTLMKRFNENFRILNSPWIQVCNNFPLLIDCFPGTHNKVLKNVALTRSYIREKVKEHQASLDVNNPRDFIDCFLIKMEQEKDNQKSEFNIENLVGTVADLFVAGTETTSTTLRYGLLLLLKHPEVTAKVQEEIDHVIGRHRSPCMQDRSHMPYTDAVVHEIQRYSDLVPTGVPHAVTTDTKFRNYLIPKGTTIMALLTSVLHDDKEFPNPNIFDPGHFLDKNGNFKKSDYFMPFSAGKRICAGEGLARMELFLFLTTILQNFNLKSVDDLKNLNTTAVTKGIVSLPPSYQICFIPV
Method: The objective of this study was to evaluate in vitro the Ki of tucatinib of the following human hepatic cytochrome P450 (CYP) enzymes (CYP2C8, CYP2C9, and CYP3A4) and UGT1A1. […] Pooled human liver microsomes (HLM) from 150 individuals (79 males and 71 females) were obtained from BioreclamationIVT (Baltimore, Md.) and stored at approximately −70° C. The microsomes were characterized by the supplier for total protein and selected cytochrome P450 activities. […] The final organic solvent contribution was ≤1%. Incubations were terminated by the addition of chilled acetonitrile containing a stable isotope-labeled internal standard. […] Samples were analyzed by liquid chromatography with tandem mass spectrometry (LC-MS/MS). Analyte concentrations were quantified by LC-MS/MS and interpolated from standard curves of authentic analyte. […] Activities were calculated based on analyte concentration, incubation time, and protein concentration. Enzymatic activity (pmol/minute/mg protein) was expressed as the formation of the analyte per final protein concentration per incubation time. Activity remaining was expressed as the enzymatic activity at each concentration point of the test article normalized by the solvent control mean activity. […]

[1] = Example 2 Part E: single- and multiple-dose PK of tucatinib and ONT-993; format: in vivo, human; settings: tucatinib 300 mg BID, Day 14 vs Day 8
CYP3A4/5 = test: Cytochrome P450 3A4/5 inhibition in human liver microsomes (Example 4); format: in vitro ADME; settings: both sexes, pooled human liver microsomes
Method: This in vitro study was designed to evaluate the ability of tucatinib to inhibit the major CYP enzyme CYP3A4/5 in human liver microsomes (using two different substrates) with the aim of ascertaining the potential of tucatinib to inhibit the metabolism of concomitantly administered drugs. The inhibitory potency of tucatinib was determined in vitro by measuring the activity of CYP3A4/5 in human liver microsomes in the presence and absence of tucatinib. […] Metabolism-dependent inhibition was further evaluated to determine how quickly (kinact value) and to what extent (Ki value) tucatinib inactivates CYP3A4/5.
Human liver microsomes from non-transplantable, donated livers were prepared and characterized. A mixed-gender pool of 200 individual human liver microsomal samples was used for this study (Sekisui XenoTech catalog number: H2620, lot number: 1210347).
To measure CYP activity, incubations were conducted at approximately 37° C. in 200 μL incubation mixtures (pH 7.4) containing water, potassium phosphate buffer (50 mM), MgCl2 (3 mM), EDTA (1 mM), an NADPH-regenerating system (always the mixture of the following: NADP [1 mM], glucose 6 phosphate [5 mM], glucose 6 phosphate dehydrogenase [1 Unit/mL]), and marker substrate at the final concentrations indicated.
Aliquots of the stock and/or working solutions of tucatinib were manually added to buffer mixtures described above. Incubation mixtures were prepared in bulk to obviate the need for directly pipetting very small volumes (i.e., 1 μL or less). Incubations containing no tucatinib (0 μM; Solvent Control) contained the solvent used to dissolve tucatinib (i.e., DMSO).
The Tecan liquid handling system conducted all remaining steps for the IC50 and Kl/kinact determinations, with the exception of the centrifugation. For these assays, duplicate aliquots of the buffer mixtures were automatically added to 96-well plates at the appropriate locations. Aliquots of a substrate working solution were added to the 96-well plates prior to initiating reactions. Marker substrate reactions were initiated by the addition of an aliquot of an NADPH-regenerating system and were automatically terminated at approximately 5 min by the addition of the appropriate internal standard and stop reagent, acetonitrile. The samples were centrifuged at 920×g for 10 min at 10° C. The supernatant fractions were analyzed by LC-MS/MS. Standards were similarly prepared with the addition of authentic metabolite standards.
Due to the possibility that tucatinib may bind to microsomal protein or lipids, an attempt was made to design these experiments such that, in as many cases as possible, the microsomal protein, incubation time and buffer concentration were 0.1 mg/mL, 5 min and 50 mM, respectively.
To examine its ability to act as a direct inhibitor of enzymes, tucatinib (at concentrations ranging from 0.01 to 10 μM) was incubated with marker substrate and human liver microsomes. The concentrations of marker substrates were based on the Km or S50 data that were determined previously.
To examine its ability to act as a metabolism-dependent inhibitor of CYP3A4/5 enzymes, tucatinib (at the same concentrations used to evaluate direct inhibition) was preincubated at 37±2° C., in duplicate, with human liver microsomes and an NADPH-regenerating system for approximately 30 min. This preincubation allowed for the generation of intermediates that could inhibit human CYP3A4/5 activity. The preincubations were initiated by the addition of an aliquot of an NADPH-regenerating system. To examine its ability to act as a time-dependent inhibitor of CYP3A4/5 enzymes, additional duplicate samples at all tucatinib concentrations were preincubated for 30 min in the presence of pooled human liver microsomes, but in the absence of NADPH. This preincubation allowed assessment of whether any potential increase in inhibition was dependent upon NADPH (e.g., potentially CYP-mediated). […]

## Cc1cc(Nc2ncnc3ccc(NC4=NC(C)(C)CO4)cc23)ccc1Oc1ccn2ncnc2c1 [tucatinib]
CYP2C8
  Inhibition mechanism, CYP2C8: competitive inhibition
CYP2C8; marker substrate amodiaquine
  Ki: 170 nM
[1]
  Rac (accumulation ratio) after multiple dosing: 1.50
CYP3A4/5; human, pH 7.4, probe midazolam (1′-hydroxylation), midazolam 1′-hydroxylation, read-out: Efficiency of inactivation (kinact/KI) (converted)
  kinact/KI: 350 M⁻¹ s⁻¹
CYP3A4/5; human, pH 7.4, probe midazolam (1′-hydroxylation), read-out: IC50, direct inhibition of CYP3A4/5-mediated midazolam 1′-hydroxylation
  IC50 at 5 min: 3.3 µM
CYP3A4/5; human, pH 7.4, probe midazolam (1′-hydroxylation), read-out: KI, inactivation of CYP3A4/5-mediated midazolam 1′-hydroxylation, mean±SE
  KI (inactivation): 540 ± 250 nM
CYP3A4/5; human, pH 7.4, probe midazolam (1′-hydroxylation), read-out: kinact, inactivation of CYP3A4/5-mediated midazolam 1′-hydroxylation, mean±SE (converted)
  kinact: 0.000183 s⁻¹
CYP3A4/5; human, pH 7.4, probe testosterone (6β-hydroxylation), read-out: IC50, direct inhibition of CYP3A4/5-mediated testosterone 6p-hydroxylation
  IC50 at 5 min: > 10 µM
CYP3A4/5; pH 7.4, probe testosterone (6β-hydroxylation), human liver microsomes, up to 10 μM, read-out: Maximum direct inhibition of CYP3A4/5-mediated testosterone 6p-hydroxylation
  inhibition at 5 min: 44%
